In PMC5187537, “Antioxidant Activity of Oat Proteins Derived Peptides in Stressed Hepatic HepG2 Cells” (Antioxidants, 2016):
Peptide text beside a SMILES is read from it.

Assays:
[1] = system: intracellular ROS of HepG2 cells; assay: Intracellular reactive oxygen species, DCFH2-DA assay; type: cell-based, Human; conditions: 100 µM peptide 24 h, then 20 mM AAPH 24 h, 40 µM DCFH2-DA, fluorescence 60 min
Procedure: The measurement of intracellular ROS was determined using a method described by Wolfe and Rui, with modifications. HepG2 cells were seeded at 4 × 10^4 cells/well in a 96-well tissue culture plate and were treated for 24 h with 100 µM of peptide dissolved in media, with the exception of NC and PC controls. Media was removed, cells washed twice with PBS, incubated (24 h) with 20 mM AAPH and washed again with PBS. Two hundred µL of 40 µM DCFH2-DA dissolved in buffer was added, and fluorescent intensity was immediately recorded at 2 min intervals for a total of 60 min. The percentage increase in fluorescent intensity was calculated as shown in Equation (1). (1) Fluorescent increase (%)=Final reading−Initial reading/Initial reading×100

[2] = Oxygen radical absorbance capacity (ORAC) assay; conditions: fluorescein 0.08 µM, AAPH 150 mM, 37 °C, 50 min, potassium phosphate buffer pH 7.4 75 mM, peptides 100 and 200 µM; triplicate, mean ± STDEV
Procedure: The ORAC assay was performed as previously described. The decay of fluorescein (0.08 µM) by AAPH (150 mM) at 37 °C was recorded at 1 min intervals over 50 min using a BioTek™ FL × 800™ fluorescent microplate reader (Fisher Scientific, Nepean, ON, Canada) with fluorescence filters (excitation 485/20 nm, emission 528/20 nm). Potassium phosphate buffer (pH 7.4, 75 mM) was used to dissolve peptides (100 and 200 µM) and Trolox standards (6.25–100 µM). Data analysis was done with Gen5^TM software (Fisher Scientific, Nepean, ON, Canada), and ORAC values were expressed as µM Trolox Equivalent (TE)/µM peptide using the standard curve.

HepG2 cells = assay: MTT cytotoxicity assay; type: cell-based, Human; conditions: 24 h
Procedure: Human hepatocellular carcinoma (HepG2) cells were purchased from the American Type Culture Collection (ATCC; Manassas, VA, USA). They were cultured at 37 °C in a humidified incubator with 5% CO2 and 95% air. Dulbecco’s Minimal Essential Media (DMEM) supplemented with 10% (v/v) Fetal Bovine Serum was used for the maintenance of cells. […] The MTT (3-(4,5-dimethylthiazol-2-yl)-2,5-diphenyltetrazolium bromide) assay, as described in an earlier research, was used for cytotoxicity and cytoprotective tests. […] Following another 24 h incubation, cells were washed twice with 200 µL of PBS. Ten µL of MTT solution (5 mg/mL in PBS) and 100 µL of media were added to each well. After 1 h, MTT solution was removed, and 50 µL DMSO were added. Absorbances were recorded at 570 nm with 630 nm background subtraction using a BioTek Epoch™ microplate reader (Fisher Scientific, Nepean, ON, Canada). Untreated cells were used as negative control (NC) and cells treated with only AAPH were used as positive control (PC).

catalase (CAT) = assay: Catalase activity of lysates of AAPH-stressed cells; type: cell-based, Human; conditions: then AAPH 24 h; for Further increase of CAT activity compared to PC cells: 50 µM peptide 24 h
Procedure: (§1) Cells were seeded at 1 × 10^6 cells/plate in 60 mm tissue culture plates and allowed to grow for 24 h. In each plate, cells were washed twice with 4 mL of PBS (pH 7.2), and treated with 4 mL peptide samples (P1, P2, P6, P7) dissolved in culture media at 50 or 100 µM for 24 h. After removal of peptide solutions, cells were washed twice with 4 mL of PBS/plate and treated with 4 mL of […] dissolved in culture media and allowed to incubate for 24 h. Cells in each culture plate were harvested by incubation (5 min) with 0.5 mL of 0.25% trypsin, addition of 1 mL of culture media and centrifugation at 1000× g for 5 min. Cell pellets were washed with ice cold PBS (500 µL each) until no pink color was observed, re-suspended in ice cold PBS (300 µL) for the superoxide dismutase (SOD) assay, 500 µL for glutathione peroxidase (GPx) and catalase (CAT) assays. For total glutathione assay, 300 µL of 5% ice cold sulfosalicylic acid bubbled with 100% nitrogen was used for cell lysis. Cells were lysed by sonication on ice for 1 min using a probe-type sonicator (Vibra-Cell, Sonics and Materials Inc., Newtown, CT, USA) pulsing at 15 s on and 10 s off cycles. Following centrifugation of cell lysate at 13,000× g (4 °C), pellets containing cell debris were discarded, while supernatants were used for determination of glutathione content. Protein contents were determined using a modified Lowry assay. To measure the catalase activity, 1790 µL potassium phosphate buffer (50 mM, pH 7.0) was mixed with 200 µL cell lysate in a UV cuvette. Ten µL of H2O2 (30%) was added, and removal of H2O2 by catalase was followed at 240 nm using a Cary 50 Bio UV-Vis spectrophotometer with 18-cell changer (Varian Inc., Mississauga, ON, Canada). The activity was expressed as a percentage of control.

[3] = system: glutathione peroxidase (GPx); assay: Glutathione peroxidase activity of lysates of AAPH-stressed cells; type: cell-based, Human; conditions: then AAPH 24 h; for Effect on GPx activity of AAPH-stressed cells: 50 µM peptide 24 h; for Increase of GPx activity above that of normal cells: 100 µM peptide 24 h, p < 0.05
Procedure: as §1, with “assay.” for “assay. To measure the catalase activity, 1790 µL potassium phosphate buffer (50 mM, pH 7.0) was mixed with 200 µL cell lysate in a UV cuvette. Ten µL of H2O2 (30%) was added, and removal of H2O2 by catalase was followed at 240 nm using a Cary 50 Bio UV-Vis spectrophotometer with 18-cell changer (Varian Inc., Mississauga, ON, Canada). The activity was expressed as a percentage of control.”
The activity of GPx was determined as previously described in a 96-well plate. Briefly, in each well, 187.5 µL of potassium phosphate buffer was mixed with 12.5 µL NADPH (4 mM) solution and 25 µL of cell lysates or buffer (blank), and incubated at 30 °C for 5 min. Then, 100 µL of 0.15% cumene hydroperoxide was added in each well to begin the reaction. The rate of disappearance of NADPH was followed at 340 nm for 5 min. The activity was expressed as Units of GPx activity/mg protein.

SMILES | Intracellular reactive oxygen species [1] | ORAC value (peroxyl radical scavenging activity) [2] | Increase in cell viability (growth promotion) (HepG2 cells; peptide alone, no AAPH, MTT (Figure 2A)) | Concentration above which cytotoxic (HepG2 cells; tested at 20–500 µM, MTT) | Further increase of CAT activity compared to PC cells (catalase (CAT)) | Effect on CAT activity (catalase (CAT); 100 µM peptide 24 h) | Effect on GPx activity of AAPH-stressed cells [3] | Increase of GPx activity above that of normal cells [3] | Effect on HepG2 cell viability compared to NC (HepG2 cells; 50 and 100 µM peptide, MTT, p > 0.05)
CC[C@H](C)[C@H](NC(=O)[C@H](Cc1ccc(O)cc1)NC(=O)[C@@H](NC(=O)[C@H](CC(C)C)NC(=O)CN)C(C)C)C(=O)N[C@@H](CC(C)C)C(=O)O [P2] (H-GLVYIL-OH; N-terminus and C-terminus assumed) | reduced production of intracellular reactive oxygen species | 0.67 ± 0.02 µM TE/µM | ~2.7 fold | above 450 µM | 60% | almost doubled | completely restored the activity | 30.2% | 
CC[C@H](C)[C@H](NC(=O)[C@H](Cc1ccc(O)cc1)NC(=O)[C@@H](NC(=O)[C@H](CC(C)C)NC(=O)CNC(=O)[C@@H]1CCCN1C(=O)[C@H](C)NC(=O)[C@H](CC(N)=O)NC(=O)[C@H](Cc1c[nH]cn1)NC(=O)[C@@H](N)Cc1ccc(O)cc1)C(C)C)C(=O)N[C@@H](CC(C)C)C(=O)O [P6] (H-YHNAPGLVYIL-OH; N-terminus and C-terminus assumed) | reduced production of intracellular reactive oxygen species | 0.14–0.61 µM TE/µM |  |  | 60% |  | completely restored the activity | 38.6% | did not affect HepG2 cells viability
